Reference: US20200232961A1, “CHARACTERIZATION AND APPLICATION OF POLYMERS FOR IN VIVO RELEVANT DRUG ABSORPTION CHARACTERIZATION IN VITRO” (priority 2017, published 2020)
≈ marks a conversion by molar mass, not a printed value. Structures can show the parent of a compound that is named as a salt. Where two headings read alike, the source gives them in different places.

How the values were obtained:
[1] = Partition coefficient measurements in PDMS membranes; type: physicochemical; conditions: intrinsic non-ionized partition coefficient, N = 5
Experimental: For each drug, five membranes were prepared. Each membrane was prepared with 10 parts base to 1 part curing agent and cured at 20° C. for at least 72 hours. Once cured, the membranes were sectioned using a template and razor blade. The dimensions of the perimeter and thickness were measured using a caliper to determine the volume of membrane. After determining membrane density, subsequent volume measurements were made using the density relationship. Stock solution was distributed to 5 sample vials with 1 membrane-free vial to serve as a control. The time zero point was measured from the blank vial and time points and 1 mL samples were taken at 12 and 24 hours. The collected samples were assayed in duplicate by HPLC. Bulk transport properties of PDMS were measured to evaluate PDMS fitness for the mimicking human oral absorption. The partition coefficient was calculated according to Equation 4. K=Partition coefficient Cmem*=Equilibrium concentration of drug in membrane Caq*=Equilibrium concentration of drug in the aqueous media

[2] = type: physicochemical
Experimental: This experiment was conducted in a manner similar to the experiment described in “Partition Coefficient Measurements”, above. […] Four different mass % of curing agents (4.9%, 9.1%, 16%, and 25%) were examined at two different pH conditions (2.00 HCl 13 mM & 6.50 phosphate 50 mM). The Log DPDMS was measured as a function of pH at pH 2.00, 5.00, 6.45, and 12.00 using 13 mM HCl, 50 mM acetate, 50 mM phosphate, and 39 mM NaOH buffers, respectively, at RT (FIG. 5C).

physchem = conditions: pH 2, aqueous buffer, thermodynamic from solid
Experimental: Five 1.5 mL centrifuge tubes were labeled and prepared with 1 mL of the appropriate non-ionizing buffer (see Table 5). Solid drug in powder form was added to each individual vial and then vortexed. The addition of drug and vortex mixing was repeated until there was visible undissolved drug powder present. The centrifuge tubes were then put into a hot box where they remained at an aqueous temperature of 37° C. (set point 43° C.). The internal temperature was determined by measuring the temperature of a “blank” tube in the rack. Once the internal temperature reached 37° C., the tubes were held at 37° C. for 48 hours. The tubes were removed from the hot box and centrifuged at 17,000G for 3 hours. The tubes cooled below 37° C. during the centrifugation so the tubes were re-inserted into the hot box and allowed to reach 37° C. over the course of 1 hour. Supernatant was then extracted directly from the tube in the hot box without disturbing the pellet. The supernatant was appropriately diluted for HPLC analysis.
In each permeation experiment, the donor-phase-containing drug was at a non-ionizing pH if the drug was ionizable and the receiver phase was at a completely ionizing (>99%) pH. […] Progesterone solubility was determined twice, the second time as an analytical check.

[3] = Equilibrium partition coefficient of ibuprofen into VeroClear resin spheres; type: physicochemical; conditions: pH 2 in VeroClear, 10 mm diameter spheres
[4] = Mass increase of PDMS membranes after equilibrium partitioning with ibuprofen; type: physicochemical
Experimental: Ibuprofen was chosen as a model drug because of its high lipophilicity and the ability to measure the difference in mass of drug in the membrane before and after the partitioning experiment. There was no statistical difference in the positronium lifetimes, but there was a 1.76 mg±0.12 mg (n=7) mass increase in 25% by mass curing agent PDMS membranes, and a 2.90 mg±0.38 mg (n=6) mass increase in […] by mass curing agent PDMS membranes.

[5] = UTLAM diffusion cell dissolution/absorption experiment; type: in vitro ADME; conditions: 57 micron PDMS UTLAM, donor 50 mM phosphate pH 6.5, receiver pH 8.0, 37° C., 50 rpm, 162 mg dose
Experimental: According to the SEM freeze-fracture-determined thickness based on the terminal rotational speed and mass fraction of PDMS, the membranes tested in the following experiments were 57 microns thick. 130 mL of 50 mM phosphate buffer pH 6.5 was degas sed and used as the donor phase, while 100 mL of 50 mM phosphate buffer pH 8.0 was degas sed and used as the receiver phase. The rationale behind this is that PDMS has poor ability to transport ions (a […] pH-partition relationship) and the more ionized the drug is, the less driving force the drug will provide for reverse transport out of the receiver phase. […] Ultimately, this leads to a […] transport rate of ibuprofen returning to the donor compartment. […] It is understood that the measured absorption rate is […] due the additional partitioning kinetics introduced by the resin that forms the UTLAM device. […] Physiologically, it is understood that the bicarbonate buffer bulk pH and buffer capacity are lower in the duodenum and jejunum than that of the USP 2 dissolution test. […]
The PDMS UTLAM is floated in deionized water and in about two hours the PVA is dissolved enough to tease the PDMS UTLAM to the surface of the water. […] Equivalent stirring rates could be calculated for the USP 2 paddle using CFD measurements made in COMSOL. […]

[6] = not told
[7] = Rotating membrane diffusion cell experiments (permeation through PDMS membrane); conditions: for LAG TIME (PRED.): predicted from Crank's method (Equation 16); for LAG TIME (EXP.): time to steady state transport across the membrane, linear regression of concentration versus time
[8] = literature values (refs 6, 41); cited from earlier work
[9] = average PDMS KD divided by 10^LogK for PDMS

Compound | PDMS LOGK [1] | AVG. PDMS (K*D) [6] | LAG TIME (PRED.) [6] | PARTITION INDEPENDENT DIFF. COEFF (K*D)/10^LOGK^PDMS [7, 9] | LAG TIME (PRED.) [7] | LAG TIME (EXP.) [7] | further results
COCCc1ccc(OCC(O)CNC(C)C)cc1 (stereo not drawn) [METOPROLOL TARTRATE, Metoprolol Tartrate] | 0.68 | – | – | – | – | – | –
CC(C)Cc1ccc(C(C)C(=O)O)cc1 (stereo not drawn) [IBUPROFEN, Ibuprofen] | 1.79 | 1.83 × 10^−5 CM^2 S^−1 | 158 min | 2.99 × 10^−7 CM^2 S^−1 | – | – | MEASURED PDMS LOGPU ± SE [2]: 1.81; PI EQ. 6 ([2]; calculated to fit equation 6 using data at pH 11.81 and fu~0): 0.008; MEASURED PDMS PU ± SE ([2]; intrinsic non-ionized partition coefficient, N = 15): 65; K (partition coefficient) in PDMS ([2]; pH 2): 65; MEASURED PDMS LOGPI ± SE ([2]; pH 11.81): −0.286; solubility thermodynamic at 48 h (physchem; NON-IONIZED SOLUBILITY): 60 mg/mL (≈ 291 mM); K (equilibrium partition coefficient) in VeroClear [3]: 86; mass increase of PDMS membrane after equilibrium partitioning ([4]; 3.2% by mass curing agent PDMS membranes, n=6): 2.90 mg; mass increase of PDMS membrane after equilibrium partitioning ([4]; 25% by mass curing agent PDMS membranes, n=7): 1.76 mg; absorption rate (net flux) [5]: within the same order of magnitude of ibuprofen absorption in human beings
CC(=O)[C@H]1CC[C@H]2[C@@H]3CCC4=CC(=O)CC[C@]4(C)[C@H]3CC[C@]12C [PROGESTERONE, Progesterone] | 2.03 | 1.14 × 10^−5 CM^2 S^−1 | 158 min | 1.07 × 10^−7 CM^2 S^−1 | – | – | solubility thermodynamic at 48 h (physchem; 13 mM hydrochloric acid buffer, NON-IONIZED SOLUBILITY (ANALY. COMP.), second determination as analytical check with different dilution, pH 2.00 13 mM hydrochloric acid buffer at 37° C.): 20.9 mg/mL (≈ 66.5 mM); solubility thermodynamic at 48 h (physchem; 13 mM hydrochloric acid buffer, NON-IONIZED SOLUBILITY, I = pH 2.00 13 mM hydrochloric acid buffer at 37° C.): 21.3 mg/mL (≈ 67.7 mM)
O=C(O)c1ccccc1 [BENZOIC ACID, Benzoic Acid] | 0.10 | – | – | – | 238 min | 25 min | –
Cn1c(=O)c2c(ncn2C)n(C)c1=O [CAFFEINE, Caffeine] | – | 6.02 × 10^−10 CM^2 S^−1 | 571 min | – | – | – | PARTITION I[…]. COEFF (K*D)/10^LOGK^PDMS [7, 9]: 1.70 × 10^−8 CM^2 S^−1
CC(C(=O)O)c1cccc(C(=O)c2ccccc2)c1 (stereo not drawn) [KETOPROFEN, Ketoprofen] | 0.56 | – | – | 2.58 × 10^−8 CM^2 S^−1 | 482 min | 232 min | pKa [8]: 3.89; AVG. PDMS (K*D) ([7]; non-ionized drug, donor/receiver buffer I/III as printed, 37° C., 150 rpm): 9.46 × 10^−8 CM^2 S^−1
